Laboratory results taken from patent US20230265151A1, “GIP/GLP1 CO-AGONIST COMPOUNDS” (priority 2020, published 2023).
Where two headings read alike, the source gives them in different places. *1 amine or outer side, *2 acyl side, *3 side chain or, on linkers, in order; H or OH if unused. Where a SMILES comes first, the peptide text is derived from it. Side-chain parts run from the residue outwards. [ ]: non-standard residue; d: D form. The star is where a group is joined. αMePhe(2-F) = C[C@](N)(Cc1ccccc1F)C(=O)O; γGlu = O=C(O)[C@H](CCC(=O)[*:2])N[*:1]; C14 diacid = O=C(O)CCCCCCCCCCCCC(=O)*; αMeY = C[C@](N)(Cc1ccc(O)cc1)C(=O)O; αMeF = C[C@](N)(Cc1ccccc1)C(=O)O; αMeL = CC(C)C[C@](C)(N)C(=O)O; Lauroyl = CCCCCCCCCCCC(=O)*; Orn = NCCC[C@H](N)C(=O)O; AEEA = NCCOCCOCC(=O)O; Aib = CC(C)(N)C(=O)O

How the values were obtained:
Format in all cases: cell-based
hGLP-1R = hGLP-1R (Homo sapiens, UniProt P43220); assay: Functional cAMP formation (HTRF) in HEK-293 clonal cells expressing hGLP-1R, 0.1% bovine casein, without or with 1.0% human serum albumin; parameters: expressed in transfected cells; conditions: 37° C.; for EC50: geometric mean, read-out: hGLP-1R EC50, nM (SEM, n); for Emax: read-out: hGLP-1R Emax, % ± SEM
Sequence of hGLP-1R (P43220 24-463): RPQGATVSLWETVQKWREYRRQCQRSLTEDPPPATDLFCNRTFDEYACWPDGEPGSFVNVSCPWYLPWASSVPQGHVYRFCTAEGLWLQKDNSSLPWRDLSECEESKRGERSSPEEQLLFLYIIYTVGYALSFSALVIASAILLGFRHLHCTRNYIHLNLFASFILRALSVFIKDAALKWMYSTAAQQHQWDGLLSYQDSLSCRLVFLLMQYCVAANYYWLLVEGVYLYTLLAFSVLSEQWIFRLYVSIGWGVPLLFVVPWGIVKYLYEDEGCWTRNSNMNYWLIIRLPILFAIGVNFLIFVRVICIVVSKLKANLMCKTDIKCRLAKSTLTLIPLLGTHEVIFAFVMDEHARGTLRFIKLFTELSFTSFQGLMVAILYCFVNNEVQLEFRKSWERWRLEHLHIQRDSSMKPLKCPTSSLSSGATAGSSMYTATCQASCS
Outline: (§1)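 Readings of the HTRF 665/620 nm ratio, which falls as cAMP rises, were converted to nM cAMP using a standard curve after 30 min peptide exposure at 37° C.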

hGCGR = biological target: T1, hGCGR (Homo sapiens, UniProt P47871); assay: Functional cAMP formation (HTRF) in HEK-293 clonal cells expressing hGCGR, 0.1% bovine casein, without or with 1.0% human serum albumin; conditions: geometric mean, read-out: hGCGR EC50, nM (SEM, n)
T1 construct: expressed in transfected cells
T1 sequence (P47871 26-477): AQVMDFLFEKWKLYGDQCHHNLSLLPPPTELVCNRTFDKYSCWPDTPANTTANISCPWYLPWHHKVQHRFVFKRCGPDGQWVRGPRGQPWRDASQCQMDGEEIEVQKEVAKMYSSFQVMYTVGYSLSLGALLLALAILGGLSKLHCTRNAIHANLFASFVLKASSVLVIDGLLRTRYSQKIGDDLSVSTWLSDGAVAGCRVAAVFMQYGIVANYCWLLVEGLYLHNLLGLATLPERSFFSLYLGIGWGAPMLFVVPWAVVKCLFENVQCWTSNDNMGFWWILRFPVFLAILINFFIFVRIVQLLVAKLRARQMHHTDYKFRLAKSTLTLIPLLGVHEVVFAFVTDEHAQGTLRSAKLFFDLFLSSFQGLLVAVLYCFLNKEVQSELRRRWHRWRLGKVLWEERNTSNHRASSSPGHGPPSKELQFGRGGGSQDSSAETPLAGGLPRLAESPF
Outline: as §1

hGIPR = biological target: T2, hGIPR (Homo sapiens, UniProt P48546); assay: Functional cAMP formation (HTRF) in HEK-293 clonal cells expressing hGIPR, 0.1% bovine casein, without or with 1.0% human serum albumin; conditions: for EC50: geometric mean, read-out: hGIPR EC50, nM (SEM, n); for Emax: read-out: hGIPR Emax, % ± SEM
T2 construct: expressed in transfected cells
T2 sequence (P48546 22-466): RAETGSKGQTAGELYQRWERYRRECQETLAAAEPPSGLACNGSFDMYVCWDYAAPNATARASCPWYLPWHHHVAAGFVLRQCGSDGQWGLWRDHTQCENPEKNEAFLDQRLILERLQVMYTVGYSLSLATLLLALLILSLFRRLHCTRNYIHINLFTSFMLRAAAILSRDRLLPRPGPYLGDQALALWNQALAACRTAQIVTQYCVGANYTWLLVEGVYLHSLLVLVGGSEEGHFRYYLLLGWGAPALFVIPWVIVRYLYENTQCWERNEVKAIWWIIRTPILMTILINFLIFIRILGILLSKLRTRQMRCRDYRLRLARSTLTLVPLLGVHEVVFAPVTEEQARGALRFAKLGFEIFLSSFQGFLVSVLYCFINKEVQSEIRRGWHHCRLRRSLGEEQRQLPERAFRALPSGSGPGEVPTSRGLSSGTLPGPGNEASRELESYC
Outline: as §1

[1] = 0.1% bovine casein and 1.0% human serum albumin
[2] = 0.1% bovine casein and 1.0% human serum albumin, 37° C.
[3] = cAMP, 37° C., 0.1% bovine casein (no human serum albumin)
[4] = cAMP, incubated at 37° C., 0.1% bovine casein (no human serum albumin)
[5] = HEK293, cAMP, 0.1% bovine casein, percent of maximal response to GLP-1(7-36)NH2, arithmetic mean
[6] = HEK293, 0.1% bovine casein and 1.0% human serum albumin, 37° C., percent of maximal response to GIP(1-42)NH2
[7] = HEK293, cAMP, 37° C., 0.1% bovine casein, percent of maximal response to GIP(1-42)NH2, arithmetic mean

| Compound | EC50 (hGLP-1R; [1]) [nM] | EC50 (hGLP-1R; cAMP, 0.1% bovine casein (no human serum albumin)) [nM] | EC50 (hGCGR; [2]) [nM] | EC50 (hGCGR; [3]) [nM] | EC50 (hGIPR; [2]) [nM] | EC50 (hGIPR; [3]) [nM] | Emax (hGLP-1R; HEK293, percent of maximal response to GLP-1(7-36)NH2, 0.1% bovine casein, arithmetic mean) [%] | EC50 (hGCGR; [4]) [nM] | Emax (hGIPR; HEK293, percent of maximal response to GIP(1-42)NH2, 37° C., 0.1% bovine casein, arithmetic mean) [%] | EC50 (hGIPR; [4]) [nM] | Emax (hGLP-1R; [5]) [%] | Emax (hGIPR; [6]) [%] | Emax (hGIPR; [7]) [%] | Emax (hGLP-1R; HEK293, 0.1% bovine casein and 1.0% human serum albumin, percent of maximal response to GLP-1(7-36)NH2) [%] |
| --- | --- | --- | --- | --- | --- | --- | --- | --- | --- | --- | --- | --- | --- | --- |
| CCCCCCCCCCCC(=O)N[C@@H](CCC(=O)NCCOCCOCC(=O)NCCOCCOCC(=O)NCCCC[C@H](NC(=O)[C@H](CCCN)NC(=O)[C@H](CC(=O)O)NC(=O)[C@H](CC(C)C)NC(=O)[C@](C)(CC(C)C)NC(=O)[C@@H](NC(=O)[C@H](CO)NC(=O)[C@H](CCCCNC(=O)COCCOCCNC(=O)COCCOCCNC(=O)CC[C@H](NC(=O)CCCCCCCCCCC)C(=O)O)NC(=O)[C@H](CC(=O)O)NC(=O)[C@H](CO)NC(=O)[C@@H](NC(=O)[C@](C)(Cc1ccccc1F)NC(=O)[C@@H](NC(=O)CNC(=O)[C@H](CCC(=O)O)NC(=O)C(C)(C)NC(=O)[C@@H](N)Cc1ccc(O)cc1)[C@@H](C)O)[C@@H](C)O)[C@@H](C)CC)C(=O)N[C@@H](C)C(=O)N[C@@H](CCC(N)=O)C(=O)NC(C)(C)C(=O)N[C@@H](CCC(=O)O)C(=O)N[C@@](C)(Cc1ccccc1)C(=O)N[C@H](C(=O)N[C@H](CCC(=O)O)C(=O)N[C@@](C)(Cc1ccc(O)cc1)C(=O)N[C@@H](CC(C)C)C(=O)N[C@H](C(=O)N[C@@H](CCC(=O)O)C(=O)NCC(=O)NCC(N)=O)[C@@H](C)CC)[C@@H](C)CC)C(=O)O [Example 297] (H-Y[Aib]EGT[αMePhe(2-F)]TSDK([AEEA-AEEA-γGlu-Lauroyl])SI[αMeL]LD[Orn]K([AEEA-AEEA-γGlu-Lauroyl])AQ[Aib]E[αMeF]I[dE][αMeY]LIEGG-NH2) | 19.1 | 0.125 | > 9950 | > 9950 | 1.54 | 0.0112 | – | – | – | – | – | – | – | – |
| CC[C@H](C)[C@H](NC(=O)[C@H](CCCN)NC(=O)[C@H](CC(=O)O)NC(=O)[C@H](CC(C)C)NC(=O)[C@](C)(CC(C)C)NC(=O)[C@@H](NC(=O)[C@H](CO)NC(=O)[C@H](CCCCNC(=O)COCCOCCNC(=O)COCCOCCNC(=O)CC[C@H](NC(=O)CCCCCCCCCCCCC(=O)O)C(=O)O)NC(=O)[C@H](CC(=O)O)NC(=O)[C@H](CO)NC(=O)[C@@H](NC(=O)[C@](C)(Cc1ccccc1F)NC(=O)[C@@H](NC(=O)CNC(=O)[C@H](CCC(=O)O)NC(=O)C(C)(C)NC(=O)[C@@H](N)Cc1ccc(O)cc1)[C@@H](C)O)[C@@H](C)O)[C@@H](C)CC)C(=O)N[C@@H](C)C(=O)N[C@@H](CCC(N)=O)C(=O)NC(C)(C)C(=O)N[C@@H](CCC(=O)O)C(=O)N[C@@](C)(Cc1ccccc1)C(=O)N[C@H](C(=O)N[C@H](CCC(=O)O)C(=O)N[C@@](C)(Cc1ccc(O)cc1)C(=O)N[C@@H](CC(C)C)C(=O)N[C@H](C(=O)N[C@@H](CCCCNC(=O)COCCOCCNC(=O)COCCOCCNC(=O)CC[C@H](NC(=O)CCCCCCCCCCCCC(=O)O)C(=O)O)C(=O)NCC(=O)NCC(=O)N1CCC[C@H]1C(=O)N[C@@H](CO)C(=O)N[C@@H](CO)C(=O)NCC(=O)N[C@@H](C)C(=O)N1CCC[C@H]1C(=O)N1CCC[C@H]1C(=O)N1CCC[C@H]1C(=O)N[C@@H](CO)C(N)=O)[C@@H](C)CC)[C@@H](C)CC [Example 111] (H-Y[Aib]EGT[αMePhe(2-F)]TSDK([AEEA-AEEA-γGlu-C14 diacid])SI[αMeL]LD[Orn]IAQ[Aib]E[αMeF]I[dE][αMeY]LIK([AEEA-AEEA-γGlu-C14 diacid])GGPSSGAPPPS-NH2; N-terminus assumed) | – | – | – | – | – | – | 121 | > 9950 | 76.1 | 0.0202 | – | – | – | – |
| CC[C@H](C)[C@H](NC(=O)[C@H](CC(C)C)NC(=O)[C@](C)(Cc1ccc(O)cc1)NC(=O)[C@@H](CCC(=O)O)NC(=O)[C@@H](NC(=O)[C@H](Cc1ccccc1)NC(=O)[C@H](CCC(=O)O)NC(=O)C(C)(C)NC(=O)[C@H](CCC(N)=O)NC(=O)[C@H](C)NC(=O)[C@H](CCCCNC(=O)COCCOCCNC(=O)COCCOCCNC(=O)CC[C@H](NC(=O)CCCCCCCCCCCCC(=O)O)C(=O)O)NC(=O)[C@H](CCCN)NC(=O)[C@H](CC(=O)O)NC(=O)[C@H](CC(C)C)NC(=O)[C@](C)(CC(C)C)NC(=O)[C@@H](NC(=O)[C@H](CO)NC(=O)[C@H](Cc1ccc(OC)cc1)NC(=O)[C@H](CC(=O)O)NC(=O)[C@H](CO)NC(=O)[C@@H](NC(=O)[C@](C)(Cc1ccccc1F)NC(=O)[C@@H](NC(=O)CNC(=O)[C@H](CCC(=O)O)NC(=O)C(C)(C)NC(=O)[C@@H](N)Cc1ccc(O)cc1)[C@@H](C)O)[C@@H](C)O)[C@@H](C)CC)[C@@H](C)CC)C(=O)N[C@@H](CCC(=O)O)C(=O)NCC(=O)NCC(=O)N1CCC[C@H]1C(=O)N[C@@H](CO)C(=O)N[C@@H](CO)C(=O)NCC(=O)N[C@@H](C)C(=O)N1CCC[C@H]1C(=O)N1CCC[C@H]1C(=O)N1CCC[C@H]1C(=O)N[C@@H](CO)C(=O)N[C@@H](CCCCNC(=O)COCCOCCNC(=O)COCCOCCNC(=O)CC[C@H](NC(=O)CCCCCCCCCCCCC(=O)O)C(=O)O)C(N)=O [Example 261] | – | – | > 9950 | > 9950 | – | 0.025 | – | – | – | – | 97.9 | 75.7 | 105 | – |
| CC[C@H](C)[C@H](NC(=O)[C@H](CCCN)NC(=O)[C@H](CC(=O)O)NC(=O)[C@H](CC(C)C)NC(=O)[C@](C)(CC(C)C)NC(=O)[C@@H](NC(=O)[C@H](CO)NC(=O)[C@H](CCc1ccc(O)cc1)NC(=O)[C@H](CC(=O)O)NC(=O)[C@H](CO)NC(=O)[C@@H](NC(=O)[C@](C)(Cc1ccccc1F)NC(=O)[C@@H](NC(=O)CNC(=O)[C@H](CCC(=O)O)NC(=O)C(C)(C)NC(=O)[C@@H](N)Cc1ccc(O)cc1)[C@@H](C)O)[C@@H](C)O)[C@@H](C)CC)C(=O)N[C@@H](C)C(=O)N[C@@H](CCC(N)=O)C(=O)NC(C)(C)C(=O)N[C@@H](CCC(=O)O)C(=O)N[C@@H](Cc1ccccc1)C(=O)N[C@H](C(=O)N[C@@H](CCCCNC(=O)COCCOCCNC(=O)COCCOCCNC(=O)CC[C@H](NC(=O)CCCCCCCCCCCCC(=O)O)C(=O)O)C(=O)N[C@@](C)(Cc1ccc(O)cc1)C(=O)N[C@@H](CC(C)C)C(=O)N[C@H](C(=O)N[C@@H](CCCCNC(=O)COCCOCCNC(=O)COCCOCCNC(=O)CC[C@H](NC(=O)CCCCCCCCCCCCC(=O)O)C(=O)O)C(=O)NCC(=O)NCC(=O)N1CCC[C@H]1C(=O)N[C@@H](CO)C(=O)N[C@@H](CO)C(=O)NCC(=O)N[C@@H](C)C(=O)N1CCC[C@H]1C(=O)N1CCC[C@H]1C(=O)N1CCC[C@H]1C(=O)N[C@@H](CO)C(N)=O)[C@@H](C)CC)[C@@H](C)CC [Example 270] | 32.6 | – | > 9950 | > 9950 | – | – | – | – | – | – | 97 | 80.9 | 91.7 | 111 |
